Measurements from patent publication US8912186B2, “Allosteric protein kinase modulators” (Universitaet des Saarlandes, priority 2008, dated 2014).
pEC50: −log10 of the molar value.

Experiments:
PDK1 [1] = target: T1, PDK1 (Homo sapiens, UniProt O15530); test: cell-free kinase activity assay (ATPgamma[32P], T308tide substrate); type: biochemical; details: for AC50: concentration of the compound required to activate half maximally; for AC50 / max. activation of PDK1 (fold): n.e.: no effect; for max. activation of PDK1 (fold): maximum activation achievable, compared to the basal activity of PDK1
T1 construct: GST
T1 sequence (O15530 1-556): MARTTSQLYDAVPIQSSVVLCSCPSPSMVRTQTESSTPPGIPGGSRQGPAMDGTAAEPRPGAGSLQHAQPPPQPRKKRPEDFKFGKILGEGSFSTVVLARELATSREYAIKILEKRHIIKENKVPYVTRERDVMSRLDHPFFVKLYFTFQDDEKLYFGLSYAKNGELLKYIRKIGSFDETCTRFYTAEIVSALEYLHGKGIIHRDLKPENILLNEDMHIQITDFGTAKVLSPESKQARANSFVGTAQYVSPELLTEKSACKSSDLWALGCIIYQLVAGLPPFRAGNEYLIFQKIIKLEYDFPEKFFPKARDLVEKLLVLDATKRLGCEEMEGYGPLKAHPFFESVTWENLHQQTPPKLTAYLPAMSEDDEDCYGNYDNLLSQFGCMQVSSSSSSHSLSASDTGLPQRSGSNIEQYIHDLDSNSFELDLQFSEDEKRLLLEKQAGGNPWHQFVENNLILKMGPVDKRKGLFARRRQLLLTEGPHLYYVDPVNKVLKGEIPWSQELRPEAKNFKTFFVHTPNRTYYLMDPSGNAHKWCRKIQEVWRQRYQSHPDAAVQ
How it was run: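 Radiometric ATPγ[32P] kinase assay; for PDK1, 200 ng enzyme with 1 mM T308tide substrate, run at room temperature for 30 min. Reaction started with ATP-Mg and stopped with phosphoric acid. Incorporated radioactivity measured after spotting on phosphocellulose paper and washing.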

[2] = system: PC3 prostate carcinoma cells; test: MTT assay, number of living cells; type: cell-based; details: 36 h; for number of PC3 cells as compared to the DMSO-treated control (proliferation / cell death): serum starved, IGF-I, 5% FCS
Experimental: Cells were serum starved overnight and stimulated or not with 50 μg/ml IGF-I, then test compounds and 5% FCS were added, and cells grown for 36 h. A standard MTT assay was then performed to measure the number of living cells.
To measure the potency of selected compounds to inhibit growth of a cancer cell line, the widely established MTT assay was used. The assay principle relies on the formation of a purple formazan dye from MTT which has been added to the cultured cells due to mitochondrial reductase activity in intact cells. After 3-4 hours of cell incubation with MTT, formazan crystals develop in living and early apoptotic cells but not in dead cells. MTT is suitable for measuring cell proliferation and cell viability.
Thus the cell's viability critically relies on high activities of this pathway but on the other hand it requires highly efficient inhibitors to hit the cells.

PDK1 [3] = target: T2, PDK1 (Homo sapiens, UniProt O15530); test: TNP-ATP fluorescence probe of the ATP binding site conformation; details: for TNP-ATP fluorescence intensity in the presence of PDK1: addition to the TNP-ATP-PDK1 mixture
T2 construct: maximal fluorescence intensity of TNP-ATP obtained with addition of 15 μM PDK1 CD
T2 sequence (O15530 82-342 limits assumed): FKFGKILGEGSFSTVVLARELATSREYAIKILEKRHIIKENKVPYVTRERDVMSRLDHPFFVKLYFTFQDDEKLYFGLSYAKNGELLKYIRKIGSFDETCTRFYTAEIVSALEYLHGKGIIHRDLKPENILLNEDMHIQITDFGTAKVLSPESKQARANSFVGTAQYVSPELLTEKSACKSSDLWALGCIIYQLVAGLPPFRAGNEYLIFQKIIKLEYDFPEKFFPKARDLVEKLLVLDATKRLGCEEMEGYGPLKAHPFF
Experimental: In order to shed further light on the conformational change induced by the binding of small compounds to the PIF-binding pocket of PDK1, we developed a method to probe the ATP binding site conformation in solution with the use of a fluorescent ATP analogue, trinitrophenyl-ATP (TNP-ATP; FIG. 5A). […] Since the decrease in fluorescence intensity was also measured with phosphorylated HM polypeptides and PIFtide, it is likely that the ATP-binding site conformational change measured was actually related to the equivalent events that activate PDK1 by low molecular weight compounds and HM-polypeptides.
(A) TNP-ATP formulae. (B, C and D) Fluorescence intensities are expressed as % of the maximal fluorescence intensity of TNP-ATP obtained with addition of 15 μM PDK1 CD. (B) Effect of PDK1 addition on TNP-ATP fluorescence. (C) Addition of PS08 to the TNP-ATP-PDK1 mixture triggered a concentration dependent decrease of the fluorescence intensity. At 167 μM PS08 (=PS-T-8), the maximum fluorescence intensity was 60%, similar to TNP-ATP alone. (D) Effect of 167 μM PS133, the isomer compound PS08 to the TNP-ATP-PDK1.

S6K = S6K (Homo sapiens, UniProt P23443); test: cell-free kinase activity assay; type: biochemical; details: DMSO control set 100%
Sequence of S6K (P23443 whole entry): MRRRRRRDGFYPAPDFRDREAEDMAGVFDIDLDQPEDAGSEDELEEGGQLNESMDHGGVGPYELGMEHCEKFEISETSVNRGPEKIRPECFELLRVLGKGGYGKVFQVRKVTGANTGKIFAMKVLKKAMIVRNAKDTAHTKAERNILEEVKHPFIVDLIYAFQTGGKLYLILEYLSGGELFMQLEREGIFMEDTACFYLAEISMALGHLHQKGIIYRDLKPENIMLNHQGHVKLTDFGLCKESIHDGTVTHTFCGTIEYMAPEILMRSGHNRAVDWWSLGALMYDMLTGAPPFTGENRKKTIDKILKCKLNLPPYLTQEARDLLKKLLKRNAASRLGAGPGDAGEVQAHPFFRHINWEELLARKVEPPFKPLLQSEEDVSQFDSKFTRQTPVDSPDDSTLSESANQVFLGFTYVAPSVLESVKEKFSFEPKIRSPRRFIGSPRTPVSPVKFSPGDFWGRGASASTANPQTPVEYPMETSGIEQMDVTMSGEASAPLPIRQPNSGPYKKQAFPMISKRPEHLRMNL

PKA = PKA (Homo sapiens, UniProt P17612); test: cell-free kinase activity assay; type: biochemical; details: DMSO control set 100%
PKCζ = target: T3, PKCζ (Homo sapiens, UniProt Q05513); test: cell-free kinase activity assay; type: biochemical; details: DMSO control set 100%, read-out: percent of catalytic activity of the Kinase in the presence of compound as compared to the solvent control (DMSO): PKCζ
T3 sequence (Q05513 1-592): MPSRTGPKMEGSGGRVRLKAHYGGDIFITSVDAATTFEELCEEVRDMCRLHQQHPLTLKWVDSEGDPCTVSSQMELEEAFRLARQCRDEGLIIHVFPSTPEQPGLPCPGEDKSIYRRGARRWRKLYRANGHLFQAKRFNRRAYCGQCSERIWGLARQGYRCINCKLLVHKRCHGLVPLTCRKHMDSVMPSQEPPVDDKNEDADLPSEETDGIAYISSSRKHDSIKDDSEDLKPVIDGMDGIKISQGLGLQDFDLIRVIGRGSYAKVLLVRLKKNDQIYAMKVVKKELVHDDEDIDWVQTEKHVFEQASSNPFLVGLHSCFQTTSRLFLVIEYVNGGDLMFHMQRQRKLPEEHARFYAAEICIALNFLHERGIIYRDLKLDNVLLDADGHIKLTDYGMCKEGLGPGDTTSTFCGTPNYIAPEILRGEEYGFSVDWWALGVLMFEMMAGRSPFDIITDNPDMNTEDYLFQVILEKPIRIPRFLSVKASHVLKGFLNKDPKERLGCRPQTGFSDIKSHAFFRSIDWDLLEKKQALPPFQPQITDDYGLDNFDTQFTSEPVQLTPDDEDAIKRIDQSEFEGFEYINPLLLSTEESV

PKBβ = PKBβ (Homo sapiens, UniProt P31751); test: cell-free kinase activity assay; type: biochemical; details: DMSO control set 100%
Sequence of PKBβ (P31751 whole entry, species assumed): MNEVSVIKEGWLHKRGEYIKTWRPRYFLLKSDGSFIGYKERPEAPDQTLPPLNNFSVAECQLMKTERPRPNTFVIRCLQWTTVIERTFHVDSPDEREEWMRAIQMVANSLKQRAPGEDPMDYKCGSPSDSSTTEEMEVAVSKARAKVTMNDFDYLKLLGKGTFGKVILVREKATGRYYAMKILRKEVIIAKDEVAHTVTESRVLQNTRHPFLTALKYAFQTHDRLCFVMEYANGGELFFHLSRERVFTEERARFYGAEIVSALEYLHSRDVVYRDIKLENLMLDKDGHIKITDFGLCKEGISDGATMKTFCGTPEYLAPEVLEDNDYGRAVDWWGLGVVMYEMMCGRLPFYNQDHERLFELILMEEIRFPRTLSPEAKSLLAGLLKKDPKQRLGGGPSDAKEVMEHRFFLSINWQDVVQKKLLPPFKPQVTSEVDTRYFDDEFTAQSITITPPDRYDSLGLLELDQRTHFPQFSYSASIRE

PRK2 = PRK2 (Homo sapiens, UniProt Q16513); test: cell-free kinase activity assay; type: biochemical; details: DMSO control set 100%
Sequence of PRK2 (Q16513 whole entry, species assumed): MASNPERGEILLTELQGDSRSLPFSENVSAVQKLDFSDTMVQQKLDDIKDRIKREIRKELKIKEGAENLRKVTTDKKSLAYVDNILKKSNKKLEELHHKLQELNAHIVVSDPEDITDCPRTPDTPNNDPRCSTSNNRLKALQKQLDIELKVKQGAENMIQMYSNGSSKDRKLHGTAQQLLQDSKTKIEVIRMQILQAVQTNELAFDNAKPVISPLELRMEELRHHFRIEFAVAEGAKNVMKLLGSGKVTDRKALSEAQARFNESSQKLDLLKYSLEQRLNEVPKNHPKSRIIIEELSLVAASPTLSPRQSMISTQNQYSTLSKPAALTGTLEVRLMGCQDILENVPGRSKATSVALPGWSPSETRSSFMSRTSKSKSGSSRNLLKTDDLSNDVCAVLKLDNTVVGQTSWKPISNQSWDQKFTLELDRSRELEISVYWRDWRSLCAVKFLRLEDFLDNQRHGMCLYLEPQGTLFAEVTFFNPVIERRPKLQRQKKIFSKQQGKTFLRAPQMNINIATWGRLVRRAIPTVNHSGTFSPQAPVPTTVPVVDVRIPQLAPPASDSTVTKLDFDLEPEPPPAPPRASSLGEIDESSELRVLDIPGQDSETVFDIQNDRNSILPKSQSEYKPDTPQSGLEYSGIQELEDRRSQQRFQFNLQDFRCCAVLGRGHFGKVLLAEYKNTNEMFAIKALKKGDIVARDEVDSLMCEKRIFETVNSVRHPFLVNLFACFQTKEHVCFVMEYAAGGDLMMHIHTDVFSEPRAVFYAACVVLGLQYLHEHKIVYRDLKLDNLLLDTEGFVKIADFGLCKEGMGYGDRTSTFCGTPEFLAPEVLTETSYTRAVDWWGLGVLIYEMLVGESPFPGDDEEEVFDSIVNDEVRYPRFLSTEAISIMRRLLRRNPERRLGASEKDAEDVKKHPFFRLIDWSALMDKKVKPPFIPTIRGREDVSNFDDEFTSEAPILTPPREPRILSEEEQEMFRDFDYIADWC

SGK = target: T4, SGK (Homo sapiens, UniProt O00141); test: cell-free kinase activity assay; type: biochemical; details: DMSO control set 100%
T4 sequence (O00141 1-431): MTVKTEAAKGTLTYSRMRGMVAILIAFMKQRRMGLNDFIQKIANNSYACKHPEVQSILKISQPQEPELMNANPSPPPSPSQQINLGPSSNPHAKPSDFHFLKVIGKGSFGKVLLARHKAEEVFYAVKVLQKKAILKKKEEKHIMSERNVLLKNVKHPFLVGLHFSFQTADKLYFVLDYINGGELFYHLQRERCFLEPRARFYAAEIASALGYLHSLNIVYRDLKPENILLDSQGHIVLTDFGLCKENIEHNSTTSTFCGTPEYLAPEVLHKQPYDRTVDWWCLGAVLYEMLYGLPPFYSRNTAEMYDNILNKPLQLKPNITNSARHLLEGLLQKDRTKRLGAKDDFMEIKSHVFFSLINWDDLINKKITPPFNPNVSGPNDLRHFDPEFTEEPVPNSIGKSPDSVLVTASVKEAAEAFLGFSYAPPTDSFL

O=C(O)/C=C(/CSc1ccc(Cl)cc1)c1ccccc1 [PS 99, (E)-4-(4-Chlorophenylthio)-3-phenylbut-2-enoic acid]
AC50 (PDK1 [1]): 22.8 µM | max. activation of PDK1 (fold) (PDK1 [1]): 2.6 fold | concentration at which effects were detectable ([2]; PC3 cells): 10 to 20 µM | number of PC3 cells as compared to the DMSO-treated control (proliferation / cell death) [2]: can inhibit the proliferation of/or induce cell death of cancer cells | number of PC3 cells as compared to the DMSO-treated control (proliferation / cell death) ([2]; listed as PS99): significantly reduced

O=C(O)/C=C(\CCc1ccc(Br)cc1F)c1ccccc1 [PS 133, (E)-5-(4-Bromo-2-fluorophenyl)-3-phenylpent-2-enoic acid]
TNP-ATP fluorescence intensity in the presence of PDK1 (PDK1 [3]): did not affect

O=C(O)/C=C(/CCc1ccc(C(F)(F)F)cc1)c1ccccc1 [PS-T5, (Z)-3-Phenyl-5-[4-(trifluoromethyl)phenyl]pent-2-enoic acid]
percent of catalytic activity of the Kinase in the presence of compound as compared to the solvent control (DMSO): S6K (S6K; 50 μM compound): no effect | remaining activity at 200 µM (S6K; 200 μM compound, read-out: percent of catalytic activity of the Kinase in the presence of compound as compared to the solvent control (DMSO): S6K): ~60% | percent of catalytic activity of the Kinase in the presence of compound as compared to the solvent control (DMSO): PKA (PKA; 50 μM compound): no effect | remaining activity at 200 µM (PKA; 200 μM compound, read-out: percent of catalytic activity of the Kinase in the presence of compound as compared to the solvent control (DMSO): PKA): ~60% | activity at 50 µM (PDK1 [1]; 50 μM compound, DMSO control set 100%, read-out: percent of catalytic activity of the Kinase in the presence of compound as compared to the solvent control (DMSO): PDK1): > 250% | activity at 200 µM (PDK1 [1]; 200 μM compound, DMSO control set 100%, read-out: percent of catalytic activity of the Kinase in the presence of compound as compared to the solvent control (DMSO): PDK1): > 250% | AC50 (PDK1 [1]): 13.8 µM | max. activation of PDK1 (fold) (PDK1 [1]): 4.7 fold | remaining activity at 50 µM (PKCζ; 50 μM compound): ~0% | remaining activity at 200 µM (PKCζ; 200 μM compound): ~0% | percent of catalytic activity of the Kinase in the presence of compound as compared to the solvent control (DMSO): PKBβ (PKBβ; 50 μM compound): no effect | remaining activity at 200 µM (PKBβ; 200 μM compound, read-out: percent of catalytic activity of the Kinase in the presence of compound as compared to the solvent control (DMSO): PKBβ): ~80% | percent of catalytic activity of the Kinase in the presence of compound as compared to the solvent control (DMSO): PRK2 (PRK2; 50 μM compound): no effect | percent of catalytic activity of the Kinase in the presence of compound as compared to the solvent control (DMSO): PRK2 (PRK2; 200 μM compound): no effect | percent of catalytic activity of the Kinase in the presence of compound as compared to the solvent control (DMSO): SGK (SGK; 50 μM compound): weak inhib. | remaining activity at 200 µM (SGK; 200 μM compound, read-out: percent of catalytic activity of the Kinase in the presence of compound as compared to the solvent control (DMSO): SGK): ~20%

O=C(O)/C=C(/CCc1ccc(Br)cc1F)c1ccccc1 [PS-T8, (Z)-5-(4-Bromo-2-fluorophenyl)-3-phenylpent-2-enoic acid]
maximum fluorescence intensity of TNP-ATP (PDK1 [3]; 167 μM compound, % of the maximal fluorescence intensity of TNP-ATP obtained with 15 μM PDK1 CD): 60% | TNP-ATP fluorescence intensity in the presence of PDK1 (PDK1 [3]): concentration-dependent decrease

CO[C@H]1C[C@@H]2CC[C@@H](C)[C@@](O)(O2)C(=O)C(=O)N2CCCC[C@H]2C(=O)O[C@H]([C@H](C)C[C@@H]2CC[C@@H](O)[C@H](OC)C2)CC(=O)[C@H](C)/C=C(\C)[C@@H](O)[C@@H](OC)C(=O)[C@H](C)C[C@H](C)/C=C/C=C/C=C/1C [rapamycin, reference compound]
pEC50 ([2]; Homo sapiens, PC-3, PC3 cells, control drug): ~6.00
